Legend:
[1] = tested on: blood pressure; conditions: J. Med. Chem. Vol. 11, p. 811 (1968); cited from earlier work
[2] = tested on: cats; experiment: Hypotensive action in anaesthetized cats (ΔBP, ΔHR); type: in vivo, cat
Method: (§1) Hypotensive action and various cardiovascular and autonomic responses in cats.
(§2) Cats of both sexes anaestetized with pentobarbital […]. were used. The left carotid artery was exposed and cannulated with polyethylene cannula connected through a Statham pressure transducer to a Grass Polygraph Recorder. […] The compound was administered dissolved in dilute HCl in a volume of 0.4 ml. […] Both procedures are known to produce pressor effects. […]

[3] = tested on: vasopressor response to norepinephrine; experiment: Reduction of vasopressor response to norepinephrine (NE) in cats; type: in vivo, cat; conditions: 0.01 mg/kg i.v.; norepinephrine hydrochloride 1 meg/kg i.v.
Method: as §1, §2

[4] = tested on: conscious normotensive dogs; experiment: Hypotensive activity in conscious normotensive dogs; type: in vivo, dog (mongrel); conditions: 0.1 mg/kg oral
Method: Hypotensive activity in conscious normotensive dogs
Mongrel dogs of both sexes, fasting 16 hours before the experiment were used. […] The compounds were orally administered in gelatine capsules.

[5] = tested on: conscious spontaneously hypertensive rats; experiment: Antihypertensive activity in conscious spontaneously hypertensive rats; type: in vivo, rat (spontaneously hypertensive Okamoto strain)
Method: Male albino rats, spontaneously hypertensive Okamoto strain, fasting 16 hours before the experiments were used. The conscious animals were restrained in a plastic cage and a cuff was secured around the tail. The cuff was connected with an electronic blood pressure recorder. The systolic blood pressure and the heart rate were measured before and 2, 4, 6, and 24 hours after the administration of compounds. The compounds were suspended or dissolved in carboxymethylcellulose 0.5%. […] There are also included, for comparison, the results obtained under the same experimental conditions with some known antihypertensive drugs, and the approximate oral LD50 in mice are stated.

[6] = tested on: common carotid artery occlusion pressor response; experiment: Reduction of pressor response to common carotid artery occlusion (CO) in cats; type: in vivo, cat; conditions: 0.01 mg/kg i.v.; carotid artery occlusion 45 secs
Method: as §1, §2

[7] = tested on: normotensive anaesthetized rats; experiment: Hypotensive activity in normotensive anaesthetized rats; type: in vivo, rat (Sprague Dowley); conditions: for Δ mean blood pressure: at time of peak effect
Method: Male albino Sprague Dowley strain rats were anaesthetized with pentobarbital and fastened to rat boards in a supine position. The left carotid artery was exposed and cannulated with polyethylene cannula connected through a Statham pressure transducer to a Grass Polygraph Recorder. […] The compound was dissolved in dilute HCl. […] Table 1 summarizes the effects on mean blood pressure at the time of peak effect.

[8] = tested on: nictitating membrane; experiment: Reduction of contraction of nictitating membrane, pre- and postganglionic stimulation, in cats; type: in vivo, cat; conditions: for Nict. Membr. post % reduction: postganglionic stimulation (3 V, 1 msec, 5 secs); for Nict. Membr. pre % reduction: preganglionic stimulation (3 V, 1 msec, 40 Hz, 5 secs)
Method: as §1, §2

[9] = 0.01 mg/kg i.v., line with NE/CO
[10] = 0.01 mg/kg i.v., line with nictitating membrane
[11] = 0.05 mg/kg i.v., line with nictitating membrane

## CCC(C)(C)NC(=N)NC#N [Guancydine, N-cyano-N'-tert-pentylguanidine]
[1]
  hypotensive effect (literature): the most potent of the compounds of the above-mentioned literature

## CC(C)(C)NC(=NC#N)Nc1cccnc1 [P 1060, N-tert-Butyl-N"-cyano-N'-3-pyridylcuanidine]
[2]; [9]
  ΔBP: 90 mm Hg
  ΔHR: 20 beats/min.
[2]; [10]
  ΔBP: 90 mm Hg
  ΔHR: 35 beats/min.
[2]; [11]
  ΔBP: 110 mm Hg
  ΔHR: 30 beats/min.
[3]
  NE % reduction: 50%
[4]; Dog I, 1 hour
  BP: 75 mm Hg
  HR: 152 beats/minute
  UV: 2.3 mL
[4]; Dog I, 2 hours
  BP: 80 mm Hg
  HR: 180 beats/minute
  UV: 7.1 mL
[4]; Dog I, 3 hours
  BP: 90 mm Hg
  HR: 152 beats/minute
  UV: 11 mL
[4]; Dog I, 4 hours
  BP: 120 mm Hg
  HR: 140 beats/minute
  UV: 22 mL
[4]; Dog II, 1 hour
  BP: 100 mm Hg
  HR: 112 beats/minute
  UV: 8 mL
[4]; Dog II, 2 hours
  BP: 95 mm Hg
  HR: 128 beats/minute
  UV: 12.5 mL
[4]; Dog II, 3 hours
  BP: 95 mm Hg
  HR: 104 beats/minute
  UV: 22.5 mL
[4]; Dog II, 4 hours
  BP: 105 mm Hg
  HR: 100 beats/minute
  UV: 16 mL
[4]; Dog III, 1 hour
  BP: 65 mm Hg
  HR: 172 beats/minute
  UV: 22 mL
[4]; Dog III, 2 hours
  BP: 115 mm Hg
  HR: 104 beats/minute
  UV: 20 mL
[4]; Dog III, 3 hours
  BP: 110 mm Hg
  HR: 92 beats/minute
  UV: 12 mL
[4]; Dog III, 4 hours
  BP: 125 mm Hg
  HR: 88 beats/minute
  UV: 14 mL
[5]; 0.01 mg/kg, 2 hours
  BP: 141 mm Hg
  HR: 419 beats/minute
[5]; 0.01 mg/kg, 4 hours
  BP: 145 mm Hg
  HR: 423 beats/minute
[5]; 0.01 mg/kg, 6 hours
  BP: 146 mm Hg
  HR: 428 beats/minute
[5]; 0.01 mg/kg, 24 hours
  BP: 176 mm Hg
  HR: 402 beats/minute
[5]; 0.05 mg/kg, 2 hours
  BP: 126 mm Hg
  HR: 422 beats/minute
[5]; 0.05 mg/kg, 4 hours
  BP: 132 mm Hg
  HR: 420 beats/minute
[5]; 0.05 mg/kg, 6 hours
  BP: 127 mm Hg
  HR: 410 beats/minute
[5]; 0.05 mg/kg, 24 hours
  BP: 170 mm Hg
  HR: 386 beats/minute
[5]; 0.1 mg/kg, 2 hours
  BP: 118 mm Hg
  HR: 420 beats/minute
[5]; 0.1 mg/kg, 4 hours
  BP: < 100 mm Hg
  HR: 426 beats/minute
[5]; 0.1 mg/kg, 6 hours
  BP: 114 mm Hg
  HR: 422 beats/minute
[5]; 0.1 mg/kg, 24 hours
  BP: 170 mm Hg
  HR: 408 beats/minute
[5]; 0.5 mg/kg, 2 hours
  BP: < 100 mm Hg
[5]; 0.5 mg/kg, 4 hours
  BP: < 100 mm Hg
[5]; 0.5 mg/kg, 6 hours
  BP: < 100 mm Hg
[5]; 0.5 mg/kg, 24 hours
  BP: 153 mm Hg
  HR: 413 beats/minute
[5]; 1.0 mg/kg, 2 hours
  BP: < 100 mm Hg
[5]; 1.0 mg/kg, 4 hours
  BP: < 100 mm Hg
[5]; 1.0 mg/kg, 6 hours
  BP: < 100 mm Hg
[5]; 1.0 mg/kg, 24 hours
  BP: 126 mm Hg
  HR: 405 beats/minute
[6]
  CO % reduction: 100%
[7]; 0.002 mg/kg i.v.
  duration: 3 min
  Δ mean blood pressure: -70 mm Hg
[7]; 0.005 mg/kg i.v.
  duration: 12 min
  Δ mean blood pressure: -70 mm Hg
[7]; 0.010 mg/kg i.v.
  duration: > 45 min
  Δ mean blood pressure: -85 mm Hg
[8]; 0.01 mg/kg i.v.
  Nict. Membr. post % reduction: 12%
  Nict. Membr. pre % reduction: 20%
[8]; 0.05 mg/kg i.v.
  Nict. Membr. post % reduction: 21%
  Nict. Membr. pre % reduction: 12%
